Key:
[1] = molecular target: eGFP-53BP1 (Homo sapiens, UniProt Q12888); test: eGFP-53BP1 foci count per nucleus by confocal microscopy, DIvA cells; type: cell-based
[2] = molecular target: 53BP1 TTD (tandem tudor domain) (Homo sapiens, UniProt Q12888); test: SPR, OneStep gradient injections, kinetic fit with mass transport; type: binding
Chain of 53BP1 TTD (tandem tudor domain) (Q12888 1483-1606): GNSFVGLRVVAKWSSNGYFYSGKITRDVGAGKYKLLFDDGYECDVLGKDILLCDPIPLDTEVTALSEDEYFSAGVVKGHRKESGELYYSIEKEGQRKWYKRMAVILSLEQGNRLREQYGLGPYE

Chain of eGFP-53BP1 (Q12888 whole entry, the tested form may be a part): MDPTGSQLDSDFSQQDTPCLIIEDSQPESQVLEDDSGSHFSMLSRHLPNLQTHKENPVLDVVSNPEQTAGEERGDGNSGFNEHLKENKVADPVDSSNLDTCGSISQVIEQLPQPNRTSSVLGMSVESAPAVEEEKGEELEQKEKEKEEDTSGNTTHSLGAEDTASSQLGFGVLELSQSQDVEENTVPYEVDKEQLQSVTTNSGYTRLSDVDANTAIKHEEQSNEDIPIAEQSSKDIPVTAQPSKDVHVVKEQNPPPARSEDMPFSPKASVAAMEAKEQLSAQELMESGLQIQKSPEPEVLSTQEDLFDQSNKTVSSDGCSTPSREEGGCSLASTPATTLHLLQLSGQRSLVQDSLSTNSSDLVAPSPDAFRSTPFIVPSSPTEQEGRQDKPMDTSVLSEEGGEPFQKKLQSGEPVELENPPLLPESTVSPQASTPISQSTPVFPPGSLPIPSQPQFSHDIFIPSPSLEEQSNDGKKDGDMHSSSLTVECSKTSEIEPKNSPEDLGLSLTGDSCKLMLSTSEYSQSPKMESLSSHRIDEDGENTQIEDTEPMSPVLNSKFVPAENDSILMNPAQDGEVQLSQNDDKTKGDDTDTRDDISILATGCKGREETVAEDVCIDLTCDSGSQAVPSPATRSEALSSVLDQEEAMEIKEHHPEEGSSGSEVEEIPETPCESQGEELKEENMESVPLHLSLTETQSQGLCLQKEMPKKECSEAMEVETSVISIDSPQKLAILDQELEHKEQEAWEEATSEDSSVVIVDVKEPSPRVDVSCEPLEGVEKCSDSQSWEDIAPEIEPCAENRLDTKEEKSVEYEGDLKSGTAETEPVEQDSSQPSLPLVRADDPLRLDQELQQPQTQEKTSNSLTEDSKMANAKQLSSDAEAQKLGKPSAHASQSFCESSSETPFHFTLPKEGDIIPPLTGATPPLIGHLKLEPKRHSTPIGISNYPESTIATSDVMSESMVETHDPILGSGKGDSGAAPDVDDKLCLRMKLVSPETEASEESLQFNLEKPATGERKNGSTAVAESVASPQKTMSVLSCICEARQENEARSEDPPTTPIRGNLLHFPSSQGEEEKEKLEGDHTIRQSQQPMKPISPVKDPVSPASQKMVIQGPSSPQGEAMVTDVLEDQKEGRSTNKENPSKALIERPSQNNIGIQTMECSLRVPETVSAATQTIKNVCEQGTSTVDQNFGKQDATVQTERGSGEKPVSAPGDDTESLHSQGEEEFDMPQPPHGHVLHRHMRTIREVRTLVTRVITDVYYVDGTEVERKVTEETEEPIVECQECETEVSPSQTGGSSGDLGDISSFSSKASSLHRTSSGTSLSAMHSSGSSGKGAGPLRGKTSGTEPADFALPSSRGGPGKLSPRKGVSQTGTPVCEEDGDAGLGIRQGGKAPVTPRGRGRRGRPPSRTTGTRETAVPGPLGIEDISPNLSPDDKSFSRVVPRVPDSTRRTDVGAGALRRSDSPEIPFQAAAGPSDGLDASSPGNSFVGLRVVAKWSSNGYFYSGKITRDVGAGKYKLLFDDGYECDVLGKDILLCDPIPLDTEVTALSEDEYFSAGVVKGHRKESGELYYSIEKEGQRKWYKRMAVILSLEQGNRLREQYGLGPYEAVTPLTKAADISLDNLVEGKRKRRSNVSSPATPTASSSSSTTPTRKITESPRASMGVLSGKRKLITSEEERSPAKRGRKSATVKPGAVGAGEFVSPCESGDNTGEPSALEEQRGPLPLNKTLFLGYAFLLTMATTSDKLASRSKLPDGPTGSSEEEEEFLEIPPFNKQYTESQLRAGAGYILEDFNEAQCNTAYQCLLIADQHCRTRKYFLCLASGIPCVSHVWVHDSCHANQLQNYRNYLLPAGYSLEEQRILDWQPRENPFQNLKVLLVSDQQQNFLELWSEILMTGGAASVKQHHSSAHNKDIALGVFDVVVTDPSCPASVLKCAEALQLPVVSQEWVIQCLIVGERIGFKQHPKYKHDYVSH

IC50 [1]: 13 ± 5 µM
Kd [2]: 14 µM
SMILES: CCN1CCN(C(=O)c2ccc(Cn3nc(C)cc3C)cc2)CC1 [EoHR, (4-((3,5-dimethyl-1H-pyrazol-1-yl)methyl)phenyl)(4-ethylpiperazin-1-yl)methanone]

From article doi:10.1101/2024.05.30.596757v1 (biorxiv, 2024)
